Results as given in patent US6291458A, “Morpholinobenzamide salts” (AstraZeneca AB, priority 1997, dated 2001).
≈ marks a conversion by molar mass, not a printed value. Read-outs that look alike come from different tables or passages of the source. Blank lines part the entries; values can stand above or below the compound they belong to.

Experiments:
[1] = Solubility determination in purified water at 25° C.; format: physicochemical; details: HPLC assay
Procedure: Excess of (R)-N-[5-methyl-8-(4-methylpiperazin-1-yl)-1,2,3,4-tetrahydro-2-naphthyl]- 4-morpholinobenzamide or it's corresponding salts was added to purified water. The solution was agitated overnight in a water bath, kept at 25° C. by using a thermostat (Julabo SW and U3, 60 strokes/min). The saturated solution was centrifuged and filtered through a 0.45 .quadrature.m Gelman GHP Acrodisc® 13 filter, diluted and assayed by HPLC.

[2] = Solubility and release rate of the base (background statement); format: physicochemical; details: base form
[3] = rate is different in the stomach and the intestines
[4] = water, salts, read-out: Solubility mg/mL (Solubility in Water at 25° C. for different salts)

SMILES: Cc1ccc(N2CCN(C)CC2)c2c1CC[C@@H](NC(=O)c1ccc(N3CCOCC3)cc1)C2 [Salicylate, (R)-N-[5-Methyl-8-(4-methylpiperazin-1-yl)-1,2,3,4-tetrahydro-2-naphthyl]-4-morpholinobenzamide Salicylate]
Solubility mg/mL (Solubility in Water at 25° C. for different salts) ([1]; salts): 0.29 mg/mL

SMILES: Cc1ccc(N2CCN(C)CC2)c2c1CC[C@@H](NC(=O)c1ccc(N3CCOCC3)cc1)C2 [Base, (R)-N-[5-Methyl-8-(4-methylpiperazin-1-yl)-1,2,3,4-tetrahydro-2-naphthyl]-4-morpholinobenzamide]
solubility ([1]; water, base, read-out: Solubility in Water): 0.034 mg/mL (≈ 75.8 µM)

SMILES: C[C@H](O)C(=O)O.Cc1ccc(N2CCN(C)CC2)c2c1CC[C@@H](NC(=O)c1ccc(N3CCOCC3)cc1)C2 [L-Lactate, (R)-N-[5-Methyl-8-(4-methylpiperazin-1-yl)-1,2,3,4-tetrahydro-2-naphthyl]-4-morpholinobenzamide L-Lactate]
solubility ([1]; salts, read-out: Solubility mg/mL (Solubility in Water at 25° C. for different salts)): 18.8 mg/mL

pH dependence of release rate [2, 3]: pH dependent
release rate [2, 3]: slow
solubility in water ([2]; result in words): extremely low
SMILES: Cc1ccc(N2CCN(C)CC2)c2c1CCC(NC(=O)c1ccc(N3CCOCC3)cc1)C2 (racemic) [compound of formula I, N-[5-methyl-8-(4-methylpiperazin-1-yl)-1,2,3,4-tetrahydro-2-naphthyl]-4-morpholinobenzamide]

SMILES: Br.Br.Cc1ccc(N2CCN(C)CC2)c2c1CC[C@@H](NC(=O)c1ccc(N3CCOCC3)cc1)C2 [Dihydrobromide, (R)-N-[5-methyl-8-(4-methylpiperazin-1-yl)-1,2,3,4-tetrahydro-2-naphthyl]-4-morpholinobenzamide dihydrobromide]
solubility [1, 4]: 4.6 mg/mL

SMILES: Cc1ccc(N2CCN(C)CC2)c2c1CC[C@@H](NC(=O)c1ccc(N3CCOCC3)cc1)C2 [L-Ascorbate, (R)-N-[5-Methyl-8-(4-methylpiperazin-1-yl)-1,2,3,4-tetrahydro-2-naphthyl]-4-morpholinobenzamide L-Ascorbate]
Solubility mg/mL (Solubility in Water at 25° C. for different salts) ([1]; salts): 4.2 mg/mL

SMILES: Cc1ccc(N2CCN(C)CC2)c2c1CC[C@@H](NC(=O)c1ccc(N3CCOCC3)cc1)C2.O=C(O)CO [Glycolate, (R)-N-[5-Methyl-8-(4-methylpiperazin-1-yl)-1,2,3,4-tetrahydro-2-naphthyl]-4-morpholinobenzamide Glycolate]
solubility [1, 4]: > 23.6 mg/mL
